Experimental data: ChEMBL document CHEMBL1909046, “DrugMatrix in vitro pharmacology data”

Legend:
[1] = target: T1, Muscarinic acetylcholine receptor M2 (Homo sapiens, UniProt P08172); assay type: cell membranes, CHO-K1, Membrane
T1 sequence (P08172 whole entry): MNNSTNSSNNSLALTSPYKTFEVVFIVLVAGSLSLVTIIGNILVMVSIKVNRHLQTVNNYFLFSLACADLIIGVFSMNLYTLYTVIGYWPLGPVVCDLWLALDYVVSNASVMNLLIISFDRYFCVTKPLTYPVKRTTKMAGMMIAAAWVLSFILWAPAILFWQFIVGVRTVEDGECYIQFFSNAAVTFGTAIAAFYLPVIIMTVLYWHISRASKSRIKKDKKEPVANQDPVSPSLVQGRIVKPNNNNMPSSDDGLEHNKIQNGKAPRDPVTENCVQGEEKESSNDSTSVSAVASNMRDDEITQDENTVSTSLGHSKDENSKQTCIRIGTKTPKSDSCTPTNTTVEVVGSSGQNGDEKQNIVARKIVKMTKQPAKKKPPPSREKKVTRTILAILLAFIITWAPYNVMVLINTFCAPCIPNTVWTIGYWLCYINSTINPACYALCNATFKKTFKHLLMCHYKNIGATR

Androgen receptor = target: T2, Androgen receptor (Rattus norvegicus, UniProt P15207)
T2 sequence (P15207 whole entry): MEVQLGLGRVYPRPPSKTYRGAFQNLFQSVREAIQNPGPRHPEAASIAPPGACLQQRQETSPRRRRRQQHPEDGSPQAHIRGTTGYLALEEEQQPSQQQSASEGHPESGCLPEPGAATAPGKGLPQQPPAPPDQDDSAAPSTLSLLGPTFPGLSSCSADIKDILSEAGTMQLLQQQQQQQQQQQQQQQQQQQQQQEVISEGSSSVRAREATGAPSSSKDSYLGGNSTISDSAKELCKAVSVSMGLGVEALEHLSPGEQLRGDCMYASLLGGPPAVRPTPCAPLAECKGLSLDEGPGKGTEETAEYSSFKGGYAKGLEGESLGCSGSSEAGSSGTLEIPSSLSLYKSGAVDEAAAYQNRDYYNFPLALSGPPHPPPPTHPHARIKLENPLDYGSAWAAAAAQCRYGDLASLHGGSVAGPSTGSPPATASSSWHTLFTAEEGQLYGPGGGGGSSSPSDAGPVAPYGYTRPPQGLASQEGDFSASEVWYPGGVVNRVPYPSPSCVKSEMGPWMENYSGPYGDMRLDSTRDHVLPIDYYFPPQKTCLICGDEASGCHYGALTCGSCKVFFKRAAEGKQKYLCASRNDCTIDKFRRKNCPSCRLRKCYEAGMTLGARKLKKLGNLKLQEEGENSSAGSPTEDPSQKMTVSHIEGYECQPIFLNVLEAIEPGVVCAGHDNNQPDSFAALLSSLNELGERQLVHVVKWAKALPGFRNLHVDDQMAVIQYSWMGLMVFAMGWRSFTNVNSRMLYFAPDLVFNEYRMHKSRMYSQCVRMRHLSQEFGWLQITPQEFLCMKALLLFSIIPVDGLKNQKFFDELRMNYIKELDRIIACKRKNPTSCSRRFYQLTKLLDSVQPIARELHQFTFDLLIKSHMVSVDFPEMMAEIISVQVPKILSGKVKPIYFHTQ
Further: in other assays of this panel Not Active means under 50% inhibition at 10 µM.

Row | Molecule | IC50 ([1]; cho-k1) | IC50 (Androgen receptor) | further results
1 | CCOc1nc2cccc(C(=O)O)c2n1Cc1ccc(-c2ccccc2-c2nnn[nH]2)cc1 | Not Active | Not Active | –
2 | O=C(O)CCCc1cccs1 | Not Active | Not Active | –
3 | COc1ccccc1N | Not Active | – | –
4 | NC(=O)c1cccc(N)c1 [3-AMINOBENZAMIDE] | Not Active | Not Active | –
5 | C[C@H]1O[C@H](O[C@H]2[C@H](O)[C@@H](O)[C@@H](O[C@H]3[C@H](O)[C@@H](O)C(O)O[C@@H]3CO)O[C@@H]2CO)[C@H](O)[C@@H](O)[C@@H]1N[C@H]1C=C(CO)[C@@H](O)[C@H](O)[C@H]1O (some centres undefined) [ACARBOSE] | Not Active | – | –
6 | NC12CC3CC(CC(C3)C1)C2 [AMANTADINE] | Not Active | – | –
7 | NCCCNCCSP(=O)(O)O [AMIFOSTINE] | Not Active | – | –
8 | CC(=O)Oc1ccccc1C(=O)O [ASPIRIN] | Not Active | Not Active | –
9 | CC(C)c1c(C(=O)Nc2ccccc2)c(-c2ccccc2)c(-c2ccc(F)cc2)n1CC[C@@H](O)C[C@@H](O)CC(=O)O [ATORVASTATIN] | Not Active | – | –
10 | CC(=O)OC[C@H]1O[C@@H](n2ncc(=O)[nH]c2=O)[C@H](OC(C)=O)[C@@H]1OC(C)=O [AZARIBINE] | Not Active | Not Active | –
11 | C[C@H]1[C@H](NC(=O)/C(=N\OC(C)(C)C(=O)O)c2csc(N)n2)C(=O)N1S(=O)(=O)O [AZTREONAM] | Not Active | – | –
12 | O=C(O)CCNC(=O)c1ccc(/N=N/c2ccc(O)c(C(=O)O)c2)cc1 [BALSALAZIDE] | Not Active | – | –
13 | COc1cc(OC)c(C(=O)CCCN2CCCC2)c(OC)c1 [BUFLOMEDIL] | Not Active | Not Active | –
14 | Cn1c(=O)c2c(ncn2C)n(C)c1=O [CAFFEINE] | Not Active | – | –
15 | CO/N=C(\C(=O)N[C@@H]1C(=O)N2C(C(=O)O)=C(COC(C)=O)CS[C@H]12)c1csc(N)n1 [CEFOTAXIME] | Not Active | – | –
16 | CNC1=Nc2ccc(Cl)cc2C(c2ccccc2)=[N+]([O-])C1 [CHLORDIAZEPOXIDE] | Not Active | Not Active | –
17 | Cc1cc(O)cc(C)c1Cl [CHLOROXYLENOL] | Not Active | – | –
18 | CCCNC(=O)NS(=O)(=O)c1ccc(Cl)cc1 [CHLORPROPAMIDE] | Not Active | – | –
19 | NS(=O)(=O)c1cc(C2(O)NC(=O)c3ccccc32)ccc1Cl (centres undefined) [CHLORTHALIDONE] | Not Active | – | –
20 | O=C(O)CC(O)(CC(=O)O)C(=O)O [CITRIC ACID] | Not Active | – | –
21 | CC(C)NCC(O)c1ccccc1Cl (centres undefined) [CLORPRENALINE] | Not Active | Not Active | –
22 | CN1C[C@@H]2C[C@H]1CN2c1cc2c(cc1F)c(=O)c(C(=O)O)cn2C1CC1 [DANOFLOXACIN] | Not Active | – | –

Row | Molecule | IC50 ([1]; cho-k1) | IC50 (Androgen receptor) | further results
23 | COc1cccc2c1C(=O)c1c(O)c3c(c(O)c1C2=O)C[C@@](O)(C(C)=O)C[C@@H]3O[C@H]1C[C@H](N)[C@H](O)[C@H](C)O1 [DAUNORUBICIN] | Not Active | – | –
24 | O=C(O)c1cc(-c2ccc(F)cc2F)ccc1O [DIFLUNISAL] | Not Active | – | –
25 | C[S+](C)[O-] [DIMETHYL SULFOXIDE] | Not Active | – | –
26 | CC1=NN(c2ccccc2)C(=O)C1 [EDARAVONE] | Not Active | – | –
27 | CC(O)(P(=O)(O)O)P(=O)(O)O [ETIDRONIC ACID] | Not Active | – | –
28 | CC(C)(C(=O)O)c1ccc(C(O)CCCN2CCC(C(O)(c3ccccc3)c3ccccc3)CC2)cc1 (centres undefined) [FEXOFENADINE] | Not Active | – | –
29 | CN1CCN(c2c(F)cc3c(=O)c(C(=O)O)cn(CCF)c3c2F)CC1 [FLEROXACIN] | Not Active | – | –
30 | O=c1[nH]c(=O)n([C@H]2C[C@H](O)[C@@H](CO)O2)cc1F [FLOXURIDINE] | Not Active | – | –
31 | COC(=O)Nc1nc2cc(C(=O)c3ccc(F)cc3)ccc2[nH]1 [FLUBENDAZOLE] | Not Active | Not Active | –
32 | CC(=O)OCC(=O)[C@@]1(O)CC[C@H]2[C@@H]3CCC4=CC(=O)CC[C@]4(C)[C@@]3(F)[C@@H](O)C[C@@]21C [FLUDROCORTISONE ACETATE] | Not Active | Not Active | –
33 | CCOC(=O)c1ncn2c1CN(C)C(=O)c1cc(F)ccc1-2 [FLUMAZENIL] | Not Active | Not Active | –
34 | O=C(O)P(=O)(O)O [FOSCARNET] | Not Active | – | –
35 | Cc1ccc(C)c(OCCCC(C)(C)C(=O)O)c1 [GEMFIBROZIL] | Not Active | Not Active | –
36 | O=c1c(-c2ccc(O)cc2)coc2cc(O)cc(O)c12 [GENISTEIN] | Not Active | Not Active | –
37 | CCC1=C(C)CN(C(=O)NCCc2ccc(S(=O)(=O)NC(=O)N[C@H]3CC[C@H](C)CC3)cc2)C1=O [GLIMEPIRIDE] | Not Active | Not Active | –
38 | Nc1cc(-c2ccncc2)c[nH]c1=O [INAMRINONE] | Not Active | Not Active | –
39 | CCCCC1=NC2(CCCC2)C(=O)N1Cc1ccc(-c2ccccc2-c2nnn[nH]2)cc1 [IRBESARTAN] | Not Active | – | –
40 | CN1CCC(=C2c3ccccc3CC(=O)c3sccc32)CC1 [KETOTIFEN] | – | – | IC50 ([1]; read-out: IC50): 838 nM; Ki ([1]; read-out: Ki): 298 nM
41 | N[C@@H](Cn1ccc(=O)c(O)c1)C(=O)O [L-MIMOSINE] | Not Active | Not Active | –
42 | C[N+](C)(C)C[C@H](O)CC(=O)[O-] [LEVOCARNITINE] | Not Active | – | –
43 | C[C@H]1COc2c(N3CCN(C)CC3)c(F)cc3c(=O)c(C(=O)O)cn1c23.C[C@H]1COc2c(N3CCN(C)CC3)c(F)cc3c(=O)c(C(=O)O)cn1c23.O [LEVOFLOXACIN] | Not Active | – | –
44 | CCn1cc(C(=O)O)c(=O)c2cc(F)c(N3CCNC(C)C3)c(F)c21 (centres undefined) [LOMEFLOXACIN] | Not Active | – | –

Row | Molecule | IC50 ([1]; cho-k1) | IC50 (Androgen receptor) | further results
45 | CN1CCCC(CN2c3ccccc3Sc3ccccc32)C1 (centres undefined) [MEPAZINE] | – | – | IC50 ([1]; read-out: IC50): 565 nM; Ki ([1]; read-out: Ki): 201 nM
46 | Cc1cccc(C)c1NC(=O)C1CCCCN1C (centres undefined) [MEPIVACAINE] | Not Active | – | –
47 | CN(C)C(=N)NC(=N)N [METFORMIN] | Not Active | – | –
48 | CC(C)(C)NCC(O)COc1cccc2c1CC(O)C(O)C2 (centres undefined) [NADOLOL] | Not Active | – | –
49 | C[C@]12CC[C@H]3[C@@H](CCC4=CC(=O)CC[C@@H]43)[C@@H]1CC[C@@H]2O [NANDROLONE] | Not Active | – | –
50 | C[C@@H]1C/C=C/C=C/C=C/C=C/[C@H](O[C@@H]2O[C@H](C)[C@@H](O)[C@H](N)[C@@H]2O)C[C@@H]2O[C@](O)(C[C@@H](O)C[C@H]3O[C@@H]3/C=C/C(=O)O1)C[C@H](O)[C@H]2C(=O)O [NATAMYCIN] | Not Active | – | –
51 | CN(C)C(=O)Oc1cccc([N+](C)(C)C)c1.[Br-] [NEOSTIGMINE BROMIDE] | Not Active | – | –
52 | NC(=O)c1cccnc1 [NIACINAMIDE] | Not Active | – | –
53 | CS(=O)(=O)Nc1ccc([N+](=O)[O-])cc1Oc1ccccc1 [NIMESULIDE] | Not Active | – | –
54 | CN1C(=O)CN=C(c2ccccc2)c2cc([N+](=O)[O-])ccc21 [NIMETAZEPAM] | Not Active | Not Active | –
55 | C[C@@H]1O[C@@H](O[C@H]2C[C@@H](O)[C@]3(CO)[C@H]4[C@H](O)C[C@]5(C)[C@@H](C6=CC(=O)OC6)CC[C@]5(O)[C@@H]4CC[C@]3(O)C2)[C@H](O)[C@H](O)[C@H]1O [OUABAIN] | Not Active | Not Active | –
56 | NC(=O)N1c2ccccc2CC(=O)c2ccccc21 [OXCARBAZEPINE] | Not Active | – | –
57 | COc1ccnc(C[S+]([O-])c2nc3ccc(OC(F)F)cc3[nH]2)c1OC (centres undefined) [PANTOPRAZOLE] | Not Active | – | –
58 | CCc1ccc(CCOc2ccc(CC3SC(=O)NC3=O)cc2)nc1 (centres undefined) [PIOGLITAZONE] | Not Active | – | –
59 | CCCNC(C)C(=O)Nc1ccccc1C (centres undefined) [PRILOCAINE] | Not Active | – | –
60 | CCN(CC)CCNC(=O)c1ccc(N)cc1 [PROCAINAMIDE] | Not Active | – | –
61 | CCN(CC)CCCC(C)Nc1c2ccc(Cl)cc2nc2ccc(OC)cc12 (centres undefined) [QUINACRINE] | – | Not Active | IC50 ([1]; read-out: IC50): 964 nM; Ki ([1]; read-out: Ki): 343 nM
62 | CC[C@]1(O)C[C@@H]2CN(CCc3c([nH]c4ccccc34)[C@@](C(=O)OC)(c3cc4c(cc3OC)N(C)[C@H]3[C@@](O)(C(N)=O)[C@H](O)[C@]5(CC)C=CCN6CC[C@]43[C@@H]65)C2)C1 [VINDESINE] | Not Active | Not Active | –
63 | CCN(C(C)=O)c1cccc(-c2ccnc3c(C#N)cnn23)c1 [ZALEPLON] | Not Active | – | –
64 | COBALTOUS CHLORIDE | Not Active | Not Active | Ki ([1]; cho-k1): Not Active; Ki (Androgen receptor): Not Active
65 | COLISTIN | Not Active | Not Active | Ki ([1]; cho-k1): Not Active; Ki (Androgen receptor): Not Active
